Laboratory results published in publication PMC12306736 (PLOS Genetics, 2025).
Read-outs that look alike come from different tables or passages of the source.

Tests used:
[1] = test system: THP-1 cells; details: human
[2] = test system: B. ovis; assay: microbe, parasite or virus in culture; assay type: cell-based, Brucella ovis; details: for IC50: Brucella ovis
[3] = test system: B. ovis; assay: microbe, parasite or virus in culture; assay type: cell-based, Brucella ovis; details: for IC50: Brucella ovis; remark: listed apart in the source
[4] = test system: B. ovis; assay type: cell-based, Brucella ovis
[5] = test system: B. abortus; assay type: cell-based, Brucella abortus
[6] = test system: B. ovis; assay type: cell-based, Brucella ovis; remark: listed apart in the source
[7] = test system: B. abortus; assay type: cell-based
[8] = test system: B. ovis; assay type: cell-based, Brucella ovis; remark: listed apart in the source
[9] = test system: THP-1 macrophage-like cells; assay type: cell-based, human
[10] = test system: B. abortus; assay: microbe, parasite or virus in culture; assay type: cell-based; details: Brucella abortus, THP-1, 48 h, read-out: IC50, intracellular B. abortus in THP-1 cells
[11] = test system: B. abortus; assay type: cell-based, Brucella abortus; remark: listed apart in the source
[12] = test system: B. abortus; assay type: cell-based, Brucella abortus; remark: listed apart in the source
[13] = test system: B. ovis; assay type: cell-based, Brucella ovis; remark: listed apart in the source
[14] = THP-1, read-out: Intracellular IC50
[15] = 48 h, read-out: Axenic B. ovis IC50 (Fig 1B)
[16] = THP-1, 48 h, read-out: IC50 for inhibiting intracellular growth of B. ovis

Q: What does the source list for CCOc1ccc(NC(C)=O)cc1 [Phenacetin]?
A: CC50 [1]: > 50 µM; IC50 ([2]; read-out: Axenic IC50): > 50 µM; IC50 [3, 14]: > 50 µM

Q: With CC(=O)SCC(Cc1ccccc1)C(=O)NCC(=O)OCc1ccccc1 (stereo not drawn) [Racecadotril] as the compound, how does the CC50 [1] read?
A: Its CC50 is greater than 50 µM.

Q: And the IC50 ([2]; read-out: Axenic IC50)?
A: Its IC50 is greater than 50 µM.

Q: And the IC50 [3, 14]?
A: The IC50 was greater than 50 µM.

Q: What does the source list for COc1ccc(CN2CCN(C(c3ccc(F)cc3)c3ccc(F)cc3)CC2)c(OC)c1OC [Lomerizine]?
A: CC50 [1]: 50 µM; IC50 ([2]; read-out: Axenic IC50): > 50 µM; Outcome of validation assays [3]: inhibitors of intracellular replication that were not toxic to host cells; IC50 [3, 14]: 9 µM

Q: Which “Sensitivity of wild-type B. ovis on TSA blood plates” value (“Sensitivity of wild-type B. ovis” for short) [4] does the source give for CC1(C)S[C@@H]2[C@H](NC(=O)C(C(=O)O)c3ccccc3)C(=O)N2[C@H]1C(=O)O (stereo partly drawn) [carbenicillin] here?
A: Its value is “moderately sensitive”.

Q: With N[C@@H]1C[C@H]1c1ccccc1 (racemic) [Tranylcypromine] as the compound, how does the CC50 [1] read?
A: Its CC50 is greater than 50 µM.

Q: What about the IC50 ([2]; read-out: Axenic IC50) of the same compound?
A: Its IC50 is greater than 50 µM.

Q: What about the IC50 [3, 14] of the same compound?
A: Its IC50 is greater than 50 µM.

Q: With C[C@H](CCC(=O)NCCC[N+](C)(C)CCCS(=O)(=O)[O-])[C@H]1CC[C@H]2[C@@H]3[C@H](O)C[C@@H]4C[C@H](O)CC[C@]4(C)[C@H]3C[C@H](O)[C@]12C [CHAPS] as the compound, how does the “Effect of bepE disruption on B. abortus sensitivity on solid media” value [5] read?
A: The value was “did not affect sensitivity”.

Q: What about the “Sensitivity of wild-type B. ovis” value [4] of the same compound?
A: The value was “highly sensitive”.

Q: How did the “Hit status in B. ovis intracellular screen” value [6] turn out when COC(=O)C1=C(C)NC(C)=C(C(=O)OC)C1c1ccccc1[N+](=O)[O-] [nifedipine] was run?
A: The value was “neither compound emerged as a hit”.

Q: How did the “Hit status in B. ovis intracellular screen” value [6] turn out when COc1ccc(CCN(C)CCCC(C#N)(c2ccc(OC)c(OC)c2)C(C)C)cc1OC (stereo not drawn) [verapamil] was run?
A: The value was “neither compound emerged as a hit”.

Q: OCCN(CCO)c1nc(N2CCCCC2)c2nc(N(CCO)CCO)nc(N3CCCCC3)c2n1 [Dipyridamole] was tested. Which CC50 [1] did it give?
A: Its CC50 is 41 µM.

Q: What about the IC50 ([2]; read-out: Axenic IC50) of the same compound?
A: The IC50 was greater than 50 µM.

Q: And the IC50 [3, 14]?
A: The IC50 was greater than 50 µM.

Q: Which results are given for CC1(C)S[C@@H]2[C@H](NC(=O)Cc3ccccc3)C(=O)N2[C@H]1C(=O)O [Penicillin G]?
A: Differential growth of B. abortus WT and ΔbepE in Biolog phenotype microarray [7]: markedly inhibiting ΔbepE but not WT growth; Increase in susceptibility of B. abortus on deletion of bepE (spot-titration on agar) [5]: approximately five

Q: With CCCCCCCCCCCCOS(=O)(=O)[O-].[Na+] [SDS, sodium dodecyl sulfate] as the compound, how does the “Sensitivity of wild-type B. ovis” value [4] read?
A: The value was “highly sensitive”.

Q: Which CC50 [1] does the source give for O=C1CCc2ccc(OCCCCN3CCN(c4cccc(Cl)c4Cl)CC3)cc2N1 [Aripiprazole] here?
A: Its CC50 is 12 µM.

Q: With COC(=O)C1=C(C)NC(C)=C(C(=O)OCCN(C)Cc2ccccc2)C1c1cccc([N+](=O)[O-])c1 (stereo not drawn) [Nicardipine] as the compound, how does the “Growth of WT B. ovis in liquid culture” value [8] read?
A: The value was “modest lag”.

Q: And the “Effect of bepE disruption on B. abortus sensitivity on solid media” value [5]?
A: The value was “did not affect sensitivity”.

Q: And the “Increase in intracellular calcium level” value [9]?
A: Its value is 20–40%.

Q: What about the “Increase in intracellular manganese level” value [9] of the same compound?
A: Its value is 20–40%.

Q: What about the “Other metal levels in THP-1 cells” value [9] of the same compound?
A: Its value is “Most metal levels remained unchanged”.

Q: And the CC50 [1]?
A: The CC50 was 49 µM.

Q: And the “THP-1 host cell viability” value [1]?
A: The value was “does not affect THP-1 host cell viability”.

Q: And the IC50 [10]?
A: Its IC50 is 4.4 µM.

Q: What about the “Sensitivity of WT B. abortus in axenic conditions” value [11] of the same compound?
A: Its value is “insensitive”.

Q: What about the “Sensitivity of ∆bepE B. abortus in axenic conditions” value [11] of the same compound?
A: Its value is “insensitive”.

Q: What about the “Effect on terminal optical density of axenic B. ovis” value [2] of the same compound?
A: The value was “no effect on the terminal optical density at any concentration tested”.

Q: And the IC50 [2, 15]?
A: Its IC50 is greater than 25 µM.

Q: And the IC50 ([2]; read-out: Axenic IC50)?
A: The IC50 was greater than 50 µM.

Q: What about the “Outcome of validation assays” value [3] of the same compound?
A: The value was “inhibitors of intracellular replication that were not toxic to host cells”.

Q: What about the IC50 [3, 16] of the same compound?
A: The IC50 was 2.3 µM.

Q: And the IC50 [3, 14]?
A: The IC50 was 2 µM.

Q: And the “Effect of bepE deletion on B. abortus sensitivity in THP-1 cells” value [12]?
A: Its value is “did not alter sensitivity”.

Q: What about the “Wild-type B. abortus CFUs recovered from treated THP-1 cells compared to untreated controls” value [12] of the same compound?
A: The value was “significantly fewer”.

Q: What does the source list for c1ccc(-c2ccc(C(c3ccccc3)n3ccnc3)cc2)cc1 (stereo not drawn) [Bifonazole]?
A: CC50 [1]: > 50 µM; IC50 ([2]; read-out: Axenic IC50): 4 µM; Outcome of validation assays [3]: inhibitors of intracellular replication that were not toxic to host cells; IC50 [3, 14]: 14 µM

Q: What does the source list for CCCCN(CCCC)CCC(O)c1cc2c(Cl)cc(Cl)cc2c2cc(C(F)(F)F)ccc12 (stereo not drawn) [Halofantrine]?
A: CC50 [1]: > 50 µM; IC50 ([2]; read-out: Axenic IC50): 11 µM; IC50 [3, 14]: > 50 µM

Q: What does the source list for COCCOC(=O)C1=C(C)NC(C)=C(C(=O)OC/C=C/c2ccccc2)C1c1cccc([N+](=O)[O-])c1 (stereo not drawn) [Cilnidipine]?
A: Growth of WT B. ovis in liquid culture [8]: failed to grow over 72 h; Effect of bepE disruption on B. abortus sensitivity on solid media [5]: did not affect sensitivity; CC50 [1]: > 50 µM; THP-1 host cell viability [1]: does not affect THP-1 host cell viability; IC50 [10]: 13.5 µM; Sensitivity of WT B. abortus in axenic conditions [11]: insensitive; Sensitivity of ∆bepE B. abortus in axenic conditions [11]: insensitive; Concentrations giving complete growth inhibition of axenic B. ovis [2]: ≥ 10 µM; IC50 [2, 15]: 5.09 µM; IC50 ([2]; 48 h, read-out: Axenic IC50, B. ovis): ~5 µM; IC50 ([2]; read-out: Axenic IC50): 5 µM; Outcome of validation assays [3]: inhibitors of intracellular replication that were not toxic to host cells; IC50 [3, 16]: 2.5 µM; IC50 [3, 14]: 2 µM; Effect of bepE deletion on B. abortus sensitivity in THP-1 cells [12]: increase sensitivity; Axenic inhibition in high-throughput screen [13]: < 35%
